Read-outs that look alike come from different tables or passages of the source.
How the values were obtained:
HiBiT tagged Wee1 = HiBiT tagged Wee1 (Homo sapiens, UniProt P30291); test: Wee1 protein degradation assay (HiBiT assay); type: cell-based; conditions: engineered HT-1080 cells, 20 hours; for Dmax: maximum percentage of Wee1 degradation, read-out: HiBiT Wee1: Dmax
NCI-H1048 cells = test: NCI-H1048 cell proliferation assay (CTG assay); type: cell-based; conditions: Homo sapiens, 120 hours, read-out: CTG cellular assay_H1048: IC50
Procedure: NCI-H1048 Cell Proliferation Assay (CTG Assay) The following is an example of an assay that can be used to determine the anti-proliferative activity of Wee1 PROTACs in a small cell lung cancer cell line, NCI-H1048 (ATCC Cat #CRL-5853). This cell line was cultured in RPMI-1640 medium supplemented with 10% FBS. About 1,200 NCI-H1048 cells in 50 μL of culture medium were seeded into a 384-well plate (Cat #3764, Corning), pre-spotted with compounds using the Echo 650 liquid handler (Beckman). The dose-response-curve (DRC) typically has 10-points with a highest concentration at 10 μM, and half-log diluted to as low as 0.316 nM, plus a DMSO control. Assay plates were incubated at 37° C. with 5% CO2 for 120 hours. After that, 20 μL of the CellTiter-Glo (CTG) Luminescent Cell Viability Assay Reagent (Cat #G7573, Promega) was added to each well and incubated at room temperature for 30 minutes. Luminescence was then measured with Pherastar microplate reader (BMG Labtech). All percentage of cell growth inhibition curves were processed using Collaborative Drug Discovery Vault.
Cell viability reads in compound-treated wells were normalized to that of DMSO control and expressed as Percent of Control (PoC, y). A four Parameter Logistic Model was used to determine the compound's EC50 and DC50, using the following equation: […]

[1] = Pharmacokinetic study in mice (IV and PO); type: in vivo; conditions: male CD1 mice; for F: PO (10 mg/kg) vs IV (2 mg/kg); for AUC(0-inf) / clearance / half-life / Cmax: mouse, plasma; for half-life: read-out: T½ (converted)
Procedure: Objective: the objective of this study was to determine the pharmacokinetics of test compound following intravenous (IV) and oral (PO) administration to male CD1 mice.
Materials: Male CD1 mouse (20-30 g, 6-8 weeks, Zhejiang Vital River Laboratory Animal Technology Co., Ltd.).
The CD1 mice were administered with the test article intravenously via tail vein at 2 mg/kg or orally at 10 mg/kg. The animals had free access to food and water. After dose administration, blood was collected from the dorsal metatarsal vein at 5 min (0.0833 h, IV only), 15 min (0.25 h), 30 min (0.5 h), 60 min (1 h), 2 h, 4 h, 6 h, 8 h and 24 h. Blood samples were placed in an anticoagulant tube with EDTA-K2, mixed adequately and centrifuged at 4° C., 4000 g for 5 minutes to get the plasma. The plasma samples were stored at −75±15° C. until analyzed by LC-MS/MS. The PK parameters were calculated using non-compartmental model by Phoenix WinNonlin 6.1 (Linear/log trapezoidal).

[2] = Permeability study in MDCKII cells (bidirectional A to B and B to A); type: in vitro ADME, Canine; conditions: dog, MDCK
Procedure: MDCKII (Madin-Darby Canine Kidney cell line, wild type) cell was obtained from the Netherlands Cancer Institute, which was used for P-gp substrates or inhibitors screening and predicting the permeability of compounds with high efflux barriers such as duodenum, blood-brain barrier, hepatocyte nucleus and renal unit. The MDCKII cells with 10 to 22 passages were used for the permeability investigation.
MDCKII cells were cultured using Minimum Essential Media (MEM) at 37° C., 5% CO2 and 95% relative humidity. The cells were seeded in Transwell plate with 5.45×10^5 cells/cm^2. Then the cells were incubated in CO2 Incubator for 4-7 days for transport studies.
The complete medium was prepared by adding 10% FBS (fetal bovine serum) and 1% glutamax-1 to 500 ml MEM.
The dose concentrations of test compounds and control compounds were 1 μM. The bidirectional (A to B and B to A) permeability was evaluated. All incubations are performed in duplicate.
The regents were pre-incubated at 37±1° C. for 30 minutes. To determine the transport rate from apical to basolateral direction, 125 μL working solution (1 μM) was added to the Transwell insert (apical compartment), and 50 μL sample was immediately transferred from the apical compartment to a new 96-well plate as the initial donor sample (A-B) and mixed with 200 μL of acetonitrile or methanol containing IS. And 235 μL HBSS (10 mM HEPES, pH 7.4) was added to the receiver plate (basolateral compartment). To determine the transport rate from basolateral to apical direction, 285 μL working solution (1 μM) was added to the receiver plate (basolateral compartment), and 50 μL sample was immediately transferred from the basolateral compartment to a new 96-well plate as the initial donor sample (B-A) and mixed with 200 μL of acetonitrile or methanol containing IS. And 75 μL HBSS (10 mM HEPES, pH 7.4) was added to the Transwell insert (apical compartment). Then the plate was incubated at […] with 5% CO2 and 95% relative humidity for 120 minutes.
At the end of incubation, 50 μL samples from donor and receiver sides were transferred into a new 96-well plate. 200 μL of ice-cold acetonitrile or methanol containing appropriate internal standards (IS) was mixed with the samples. After vortex for 10 minutes, the samples are centrifuged at 3220 g for 40 minutes. An aliquot of 100 μL of the supernatant was mixed with appropriate volume of ultra-pure water and was analyzed by LC-MS/MS. All incubations are performed in duplicate.
The integrity of MDCKII cells were checked by Lucifer Yellow Rejection Assay after transport assay. The plate(s) were incubated with Lucifer Yellow solution at 37° C. for 30 minutes. The Lucifer Yellow fluorescence (to monitor monolayer integrity) was measured in a fluorescence plate reader at 480 nm excitation and 530 nm emission.
Test and reference compounds (metoprolol and digoxin) were semi-quantitatively analyzed, and the peak area ratio of the analyte and the internal standard was used to evaluate the concentration of the compounds.

Sequence of HiBiT tagged Wee1 (P30291 whole entry): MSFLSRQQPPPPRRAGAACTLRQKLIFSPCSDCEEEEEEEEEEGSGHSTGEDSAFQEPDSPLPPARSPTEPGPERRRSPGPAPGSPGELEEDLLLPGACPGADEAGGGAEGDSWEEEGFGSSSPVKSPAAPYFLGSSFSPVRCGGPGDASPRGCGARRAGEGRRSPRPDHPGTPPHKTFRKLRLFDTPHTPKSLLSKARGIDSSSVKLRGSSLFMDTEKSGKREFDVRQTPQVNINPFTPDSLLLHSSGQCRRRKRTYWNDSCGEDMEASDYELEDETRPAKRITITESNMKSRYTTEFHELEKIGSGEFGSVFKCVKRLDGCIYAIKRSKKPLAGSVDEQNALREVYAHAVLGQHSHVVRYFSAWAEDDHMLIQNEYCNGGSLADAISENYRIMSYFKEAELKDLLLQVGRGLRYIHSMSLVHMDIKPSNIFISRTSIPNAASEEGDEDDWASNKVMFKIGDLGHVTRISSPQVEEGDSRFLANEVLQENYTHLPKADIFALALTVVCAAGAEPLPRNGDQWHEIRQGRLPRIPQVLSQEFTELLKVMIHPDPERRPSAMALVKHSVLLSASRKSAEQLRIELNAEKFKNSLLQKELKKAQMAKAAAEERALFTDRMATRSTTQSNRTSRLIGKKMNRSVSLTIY

Row | Structure (SMILES) | DC50 (HiBiT tagged Wee1) [nM] | Dmax (HiBiT tagged Wee1) [%] | IC50 (NCI-H1048 cells) [nM] | also measured
1 | C=CCn1c(=O)c2cnc(Nc3ccc(N4CCC(CN5CCC(c6ccc(NC7CCC(=O)NC7=O)cc6)CC5)CC4)cc3)nc2n1-c1cccc(C(C)(C)O)n1 (centres unmarked) [Compound 72] | < 100 | > 75 | ≤ 25 | F [1]: 80.2%; AUC(0-inf) ([1]; IV (2 mg/kg)): 1130 ng·h/mL; clearance ([1]; IV (2 mg/kg)): 29.5 mL/min/kg; half-life ([1]; IV (2 mg/kg)): 2.81 h; AUC(0-inf) ([1]; PO (10 mg/kg)): 4530 ng·h/mL; Cmax ([1]; PO (10 mg/kg)): 550 ng/mL; half-life ([1]; PO (10 mg/kg)): 2.85 h
2 | C=CCn1c(=O)c2cnc(Nc3ccc(N4CCC(CN5CCN(c6ccc(NC7CCC(=O)NC7=O)cc6F)CC5)CC4)cc3)nc2n1-c1cccc(C(C)(C)O)n1 (centres unmarked) [Compound 71] | < 100 | > 75 | ≤ 25 | F [1]: 75.4%; AUC(0-inf) ([1]; IV (2 mg/kg)): 6730 ng·h/mL; clearance ([1]; IV (2 mg/kg)): 4.95 mL/min/kg; half-life ([1]; IV (2 mg/kg)): 2.79 h; AUC(0-inf) ([1]; PO (10 mg/kg)): 25400 ng·h/mL; Cmax ([1]; PO (10 mg/kg)): 2730 ng/mL; half-life ([1]; PO (10 mg/kg)): 3 h
3 | C=CCn1c(=O)c2cnc(Nc3ccc(N4CCN(CC5CCN(c6cccc7c6n(C)c(=O)n7C6CCC(=O)NC6=O)CC5)CC4)cc3)nc2n1-c1cccc(C(C)(C)O)n1 (centres unmarked) [Compound 65] | < 100 | 50 to 75 | ≤ 25 | efflux ratio at 120 min, 1 μM ([2]; pH 7.4): 0.94; Papp A→B at 120 min, 1 μM ([2]; pH 7.4, 120 minutes, apical to basolateral): 1.35 ×10⁻⁶ cm/s; Papp B→A at 120 min, 1 μM ([2]; pH 7.4, 120 minutes, basolateral to apical): 1.27 ×10⁻⁶ cm/s
4 | C=CCn1c(=O)c2cnc(Nc3ccc(C4CCN(CC5CCN(Cc6ccc7c(c6)n(C)c(=O)n7C6CCC(=O)NC6=O)CC5)CC4)cc3)nc2n1-c1cccc(C(C)(C)O)n1 (centres unmarked) [Compound 79] | < 100 | 50 to 75 | ≤ 25 | –
5 | C=CCn1c(=O)c2cnc(Nc3ccc(N4CCC(CN5CCN(c6ccc(NC7CCC(=O)NC7=O)cc6)CC5)CC4)cc3)nc2n1-c1cccc(C(C)(C)O)n1 (centres unmarked) [Compound 92] | < 100 | > 75 | ≤ 25 | –
6 | C=CCn1c(=O)c2cnc(Nc3ccc(N4CCC(N5CCN(c6ccc(NC7CCC(=O)NC7=O)cc6F)CC5)CC4)cc3)nc2n1-c1cccc(C(C)(C)O)n1 (centres unmarked) [Compound 67] | < 100 | > 75 | ≤ 25 | –
7 | O=C1CCC(N2C(=O)c3ccc(N4CCC(CN5CCC(c6ccc(Nc7ncc8c(=O)n(-c9c(Cl)cccc9Cl)c9nccn9c8n7)cc6)CC5)CC4)cc3C2=O)C(=O)N1 (centres unmarked) [Compound 14] | < 100 | 50 to 75 | 25 to 100 | –
8 | C=CCn1c(=O)c2cnc(Nc3ccc(N4CCN(CC5CCN(c6ccc7c(N8CCC(=O)NC8=O)nn(C)c7c6)CC5)CC4)cc3)nc2n1-c1ccc2c(n1)[C@](C)(O)CC2 [Compound 115] | < 100 | > 75 | ≤ 25 | –
9 | C=CCn1c(=O)c2cnc(Nc3ccc(N4CCN(C5CCN(c6ncc(NC7CCC(=O)NC7=O)cc6F)CC5)CC4)cc3)nc2n1-c1ccc2c(n1)[C@@](O)(CC)CC2 (some centres unmarked) [Compound 182] | < 100 | > 75 | ≤ 25 | –
10 | C=CCn1c(=O)c2cnc(Nc3ccc(N4CCN(CC5CCN(c6ccc(NC7CCC(=O)NC7=O)cc6F)CC5)CC4)c(F)c3)nc2n1-c1cccc(C(C)(C)O)n1 (centres unmarked) [Compound 125] | < 100 | > 75 | 25 to 100 | –
11 | C=CCn1c(=O)c2cnc(Nc3ccc(C4CCN(CC5CCN(c6ccc7c(c6)C(=O)N(C6CCC(=O)NC6=O)C7=O)CC5)CC4)cc3)nc2n1-c1cccc(C(C)(C)O)n1 (centres unmarked) [Compound 21] | < 100 | 50 to 75 | 25 to 100 | –
12 | C=CCn1c(=O)c2cnc(Nc3ccc(C4CCN(CC5CCN(c6ccc(NC7CCC(=O)NC7=O)cc6F)CC5)CC4)cc3)nc2n1-c1ccc2c(n1)[C@@](O)(CC)CC2 (some centres unmarked) [Compound 109] | < 100 | 50 to 75 | ≤ 25 | –
13 | C=CCn1c(=O)c2cnc(Nc3ccc(N4CCN(CC5CN(c6ccc7c(c6)C(=O)N(C6CCC(=O)NC6=O)C7=O)C5)CC4)cc3)nc2n1-c1cccc(C(C)(C)O)n1 (centres unmarked) [Compound 10] | < 100 | 50 to 75 | 25 to 100 | –
14 | C=CCn1c(=O)c2cnc(Nc3ccc(N4CCN(CC5CCN(c6ccc7c(N8CCC(=O)NC8=O)nn(C)c7c6F)CC5)CC4)cc3)nc2n1-c1ccc2c(n1)[C@](C)(O)CC2 [Compound 200] | < 100 | > 75 | ≤ 25 | –
15 | C=CCn1c(=O)c2cnc(Nc3ccc(N4CCN(CC5CCN(c6ccc(NC7CCC(=O)NC7=O)cc6F)CC5)CC4)cc3)nc2n1-c1ccc2c(n1)[C@](C)(O)CC2 (single isomer, unassigned) [Compound 152-B] | < 100 | > 75 | ≤ 25 | –
16 | O=C1CCC(N2C(=O)c3cccc(NCCCN4CCN(c5ccc(Nc6ncc7c(=O)n(-c8c(Cl)cccc8Cl)c8nccn8c7n6)cc5)CC4)c3C2=O)C(=O)N1 (centres unmarked) [Compound 2] | < 100 | 50 to 75 | 25 to 100 | –
17 | C=CCn1c(=O)c2cnc(Nc3ccc(N4CCN(CC5CCN(c6ccc7c(N8CCC(=O)NC8=O)nn(C)c7c6)CC5)CC4)c(C)c3)nc2n1-c1ccc2c(n1)[C@@](O)(CC)CC2 [Compound 129] | < 100 | 50 to 75 | ≤ 25 | –
18 | C=CCn1c(=O)c2cnc(Nc3ccc(N4CCC(CN(C)C5CCN(c6ccc(NC7CCC(=O)NC7=O)cc6F)CC5)CC4)cc3)nc2n1-c1cccc(C(C)(C)O)n1 (centres unmarked) [Compound 91] | < 100 | > 75 | ≤ 25 | –
